Structures can show the parent of a compound that is named as a salt.
What was measured:
[1] = tested on: Type 2 diabetes; settings: oral administration, human Type 2 diabetics; cited from earlier work
[2] = in vitro dissolution profile of sitagliptin phosphate from the drug film layer; assay type: physicochemical; settings: FIG. 2
From the text: FIG. 2 is a graph showing in vitro dissolution profiles for sitagliptin phosphate from the drug film layer in a pharmaceutical composition of the present invention compared to sitagliptin phosphate in JANUMET™ which is a marketed fixed-dose combination of immediate-release metformin hydrochloride and immediate-release sitagliptin phosphate.

Row | time to complete dissolution ([2]; sitagliptin phosphate from the immediate-release drug film layer of the composition) [min] | SMILES | effect on fasting glucose, postprandial glucose excursion and HbA1c [1] | dissolution compared with sitagliptin phosphate in JANUMET ([2]; sitagliptin phosphate from the drug film layer vs marketed immediate-release fixed-dose combination)
1 |  | Cn1c(=O)cc(N2CCC[C@@H](N)C2)n(Cc2ccccc2C#N)c1=O [alogliptin] | reduce fasting glucose and postprandial glucose excursion in association with significantly reduced HbA1c levels | 
2 | ≤ 30 | N[C@@H](CC(=O)N1CCn2c(nnc2C(F)(F)F)C1)Cc1cc(F)c(F)cc1F [sitagliptin phosphate, dihydrogenphosphate salt of (2R)-4-oxo-4-[3-(trifluoromethyl)-5,6-dihydro[1,2,4]triazolo[4,3-a]pyrazin-7(8H)-yl]-1-(2,4,5-trifluorophenyl)butan-2-amine] |  | comparable to that of sitagliptin phosphate in JANUMET™
3 |  | N[C@@H](CC(=O)N1CCn2c(nnc2C(F)(F)F)C1)Cc1cc(F)c(F)cc1F [sitagliptin, (2R)-4-oxo-4-[3-(trifluoromethyl)-5,6-dihydro[1,2,4]triazolo[4,3-a]pyrazin-7(8H)-yl]-1-(2,4,5-trifluorophenyl)butan-2-amine] | reduce fasting glucose and postprandial glucose excursion in association with significantly reduced HbA1c levels | 
4 |  | N#C[C@@H]1CCCN1C(=O)CNC12CC3CC(CC(O)(C3)C1)C2 [vildagliptin] | reduce fasting glucose and postprandial glucose excursion in association with significantly reduced HbA1c levels | 
